Measurements taken from patent publication US11517581B2, “Zika virus protease inhibitors and methods of use thereof” (priority 2017, dated 2022).
In brackets after ≈: the same amount, converted by molar mass. Entries after “also recorded” stand apart in the source; their conditions may differ.

Legend:
[1] = Cell viability (MTT) assay in Huh-7 cells; type: cell-based; details: human
Experimental: (§1) Briefly, Vero or Huh-7 cells (4×10^4 cells/well) were incubated with different concentrations of individual drug for 24 h, followed by the addition of 10 μl/well of 5 mg/ml MTT substrate. The monolayers were incubated as above for 4 h (away from light). Finally, 100 μl of 10% sodium dodecyl sulfate (SDS) with 0.01M HCl was added and further incubated at 37° C. with 5% CO2 overnight. […] Briefly, the drug compounds were diluted with serum-free MEM and added to confluent Vero cells in 96-well culture plates (4×10^4 cells/well) in triplicate for 2 h at 37° C. After incubation, the drug-containing media were removed, and ZIKV (multiplicity of infection, MOI=0.0002) was added together with fresh drug-compound media to each well. Following 1 h of adsorption at 37° C., the virus-compound mixture was removed and the cells were washed twice with MEM to remove unbound virus. Subsequently, media with antiviral compounds were added to the cells for further incubation for 6 days at 37° C. in a 5% CO2 humidified environment. CPE was examined by inverted light microscopy (Chan et al., 2016b). Thereafter, MTT substrate and SDS-HCl were added sequentially as mentioned above. The half maximal inhibitory concentration (IC50) and CC50 were calculated using Sigma plot (SPSS) in an Excel add-in ED50V10.

[2] = system: ZIKV (Puerto Rico strain PRVABC59) in BALB/c mice; assay: In vivo treatment of dexamethasone-immunosuppressed mice with disseminated ZIKV infection; set-up: species or system mouse (BALB/c); Zika virus; details: 100 mg/kg q12 h sc
Experimental: Phosphate-buffered saline (PBS) was used to dilute the virus stocks to the desired concentration, and inocula were back-titrated to verify the dose given. On the day of virus inoculation, a dose of the virus equivalent to 6×10^6 TCID50 (3.24×10^6 plaque forming units) in 2000 of PBS was inoculated via the intraperitoneal route into mice under ketamine (100 mg/kg) and xylazine (10 mg/kg) anesthesia. Mice in the negative-control groups were injected with the same volume of PBS. Mice were monitored three times each day for clinical signs of disease and a numerical score was assigned at each observation as previously described (Chan et al., 2016c). Three mice per group were sacrificed at 5 dpi for virological, histological, and immunohistochemistry analyses. The remaining mice were sacrificed at 14 dpi or euthanized when there was ≥20% weight loss or ≥10% weight loss with ≥1 clinical sign. Samples of major organs were collected at necropsy for virological, histological, and immunohistochemical analyzes as we previously described (Chan et al., 2016c. Chan et al., 2017b). Blood samples were also collected for RNA extraction and qRT-PCR analysis.
For immunohistochemical analysis, each organ was entirely embedded in one paraffin block, and one full-face paraffin section at the maximum diameter of each organ was examined per block.

[3] = human; cited from earlier work
[4] = system: ZIKV; assay: MTT-based CPE inhibition assay in Vero cells; type: cell-based; details: Zika virus, 144 h, MOI 0.0002, 6 days
Experimental: as §1

[5] = system: ZIKV; assay: Dexamethasone-immunosuppressed mouse model of disseminated ZIKV infection; type: in vivo, BALB/c mice
Experimental: Approval was obtained from the Committee on the Use of Live Animals in Teaching and Research of The University of Hong Kong. […] Phosphate-buffered saline (PBS) was used to dilute the virus stocks to the desired concentration, and inocula were back-titrated to verify the dose given. On the day of virus inoculation, a dose of the virus equivalent to 6×10^6 TCID50 (3.24×10^6 plaque forming units) in […] of PBS was inoculated via the intraperitoneal route into mice under ketamine (100 mg/kg) and xylazine (10 mg/kg) anesthesia. Mice in the negative-control groups were injected with the same volume of PBS. Mice were monitored three times each day for clinical signs of disease and a numerical score was assigned at each observation as previously described (Chan et al., 2016c). Three mice per group were sacrificed at 5 dpi for virological, histological, and immunohistochemistry analyses. The remaining mice were sacrificed at 14 dpi or euthanized when there was ≥20% weight loss or ≥10% weight loss with ≥1 clinical sign. Samples of major organs were collected at necropsy for virological, histological, and immunohistochemical analyzes as we previously described (Chan et al., 2016c. Chan et al., 2017b). Blood samples were also collected for RNA extraction and qRT-PCR analysis.

[6] = system: ZIKV (Puerto Rico strain PRVABC59) in Vero cells; assay: Viral load reduction assay, Vero cells; type: cell-based, Zika virus; details: culture supernatants
Experimental: (§2) A clinical isolate of ZIKV (Puerto Rico strain PRVABC59) obtained from a patient in the recent South American epidemic was kindly provided by Brandy Russell and Barbara Johnson, Centers for Disease Control and Prevention, USA. The virus was cultured and titrated as we previously described with slight modifications (Chan et al., 2016b; Zhou et al., 2014). The virus was amplified by three additional passages in Vero cells (ATCC) in minimum essential medium (MEM) supplemented with 1% fetal bovine serum (FBS, Gibco™, Life Technologies Corporation, Massachusetts, USA) and 100 units/ml penicillin plus 100 μg/ml streptomycin to make working stocks of the virus (4×10^6 50% tissue culture infectious dose (TCID50)/ml). For virus titration, aliquots of ZIKV were applied on confluent Vero cells in 96-well plates for the TCID50 assay as was previously described with slight modifications (Chan et al., 2016b; Zhou et al., 2014). Briefly, serial 10-fold dilutions of ZIKV were inoculated in a Vero cell monolayer in quadruplicate and cultured in penicillin/streptomycin-supplemented MEM and 1% FBS. […] Viral titer was calculated using the Reed and Munch endpoint method. One TCID50 was interpreted as the amount of virus that causes cytopathic effect in 50% of inoculated wells.

[7] = Cell viability (MTT) assay in Vero cells; type: cell-based; details: African green monkey
Experimental: as §1

[8] = system: ZIKV (Puerto Rico strain PRVABC59); assay: Viral load reduction assay (qRT-PCR) in Vero cells; type: cell-based, Zika virus
Experimental: Viral load reduction assay and plaque reduction assay was performed for the evaluation of antiviral activity. Briefly, ZIKV-infected Vero cells (MOI=0.05) were treated with different concentrations of drugs or dimethyl sulfoxide (DMSO) control, cell culture supernatants (Vero and Huh-7) were collected at 48 hours post-infection, followed by total nucleic acid extraction and quantitative reverse transcription-PCR (qRT-PCR) as previously described with modifications (Chan et al., 2013; Chan et al., 2016b; Chan et al., 2017a). The IC50 was calculated using Sigma plot (SPSS) in an Excel add-in ED50V10. The viral load reduction assay experiments were performed in triplicate and repeated twice for confirmation.

[9] = system: ZIKV; assay: Time-of-drug-addition assay in Vero cells; type: cell-based, Zika virus
Experimental: Briefly, Vero cells were seeded in 24-well plates (2×10^5 cells/well). The cells were inoculated with ZIKV (MOI=2) and then incubated for 1 h for virus internalization. The viral inoculum was then removed and the cells were washed twice with PBS. […] At 18 hpi, the cell culture supernatant of each time point experiment was collected for viral load measurement using qRT-PCR.

[10] = system: ZIKV (Puerto Rico strain PRVABC59); assay: Viral load reduction assay (qRT-PCR) in Huh-7 cells; type: cell-based; details: Zika virus, 0.05 MOI, 48 hours post-infection, supernatant qRT-PCR
Experimental: as §2

Q: With CO[C@@H]1[C@@H](OC(N)=O)[C@@H](O)[C@H](Oc2ccc3c(O)c(NC(=O)c4ccc(O)c(CC=C(C)C)c4)c(=O)oc3c2C)OC1(C)C [Novobiocin] as the molecule, how does the CC50 at 24 h [1] read?
A: The CC50 at 24 h was 1100 µg/mL (≈ 1800 µM).

Q: And the “ZIKV NS1 antigen expression in organ tissues (brain, testis, kidney)” value ([2]; 5 dpi)?
A: The value was “minimal ZIKV NS1 antigen expression”.

Q: What about the “Inflammatory infiltrate in brain, testis and kidney” value ([2]; ZIKV-inoculated and mock-infected mice with novobiocin) of the same molecule?
A: The value was “no or mild inflammatory infiltrate”.

Q: And the Clinical tolerability [3]?
A: Its Clinical tolerability is “generally well tolerated clinically”.

Q: And the IC50 [4]?
A: Its IC50 is 53.3 ± 2.48 µg/mL (≈ 86.9 µM).

Q: What about the Survival ([5]; 100 mg/kg q12 h sc 1-13 dpi, vs 0% untreated control mice, P<0.05) of the same molecule?
A: Its Survival is 100%.

Q: And the “ZIKV-NS1 antigen expression in organ tissues (immunohistochemical staining)” value ([5]; 5 dpi)?
A: The value was “minimal; also recorded: rarely detected”.

Q: And the “Mean viral loads in the blood and the major organ tissues” value ([5]; 5 dpi and 14 dpi, incl. testis and kidney)?
A: Its value is “significantly reduced”.

Q: What about the “Weight loss after dexamethasone withdrawal” value ([5]; ZIKV-inoculated, 100 mg/kg q12 h sc) of the same molecule?
A: Its value is ≤ 8%.

Q: And the “Clinical symptoms after dexamethasone withdrawal” value ([5]; ZIKV-inoculated, 100 mg/kg q12 h sc, recovered at 13-14 dpi)?
A: Its value is “minimal clinical symptoms”.

Q: And the “Inflammatory infiltrates in organ tissues (H&E)” value ([5]; after dexamethasone withdrawal, 12 or 14 dpi)?
A: The value was “little inflammatory infiltrate; also recorded: no or mild inflammatory infiltrate, and preserved tissue architecture; also recorded: minimal inflammatory infiltrates”.

Q: And the “Reduction of mean viral loads in blood and most major organ tissues vs untreated control mice” value ([5]; at both 5 dpi and 14 dpi, qRT-PCR normalized by β-actin)?
A: Its value is ≥ 2 log.

Q: And the “Reduction in virus titer” value [6]?
A: Its value is “dose-dependent reduction in virus titer”.

Q: And the CC50 at 24 h [7]?
A: Its CC50 at 24 h is 850 µg/mL (≈ 1390 µM).

Q: What about the IC50 ([8]; Zika virus, Vero, 48 h, read-out: IC50, viral load reduction assay) of the same molecule?
A: Its IC50 is 26.1 ± 0.33 µg/mL (≈ 42.6 µM).

Q: And the “Concentration at which mean virus titer was significantly reduced (P<0.05)” value ([8]; viral load reduction assay)?
A: Its value is ≥ 25.00 µg/mL.

Q: What about the “Viral loads at 18 hpi, drug added during virus replication stage” value ([9]; 100 μg/ml added at 0, 3, 6, 9, or 12 hpi, MOI 2, P<0.05) of the same molecule?
A: Its value is “significantly reduced”.

Q: What about the “Inhibitory activity, drug added at adsorption or release stage” value ([9]; 100 μg/ml at 0-1 hpi or at 14 hpi) of the same molecule?
A: Its value is “No significant inhibitory activity”.

Q: What about the “ZIKV attachment, cells pretreated with drug” value ([9]; 100 μg/ml, −1 to 0 hpi) of the same molecule?
A: Its value is “not affected”.

Q: And the IC50 [10]?
A: The IC50 was 38.1 ± 4.53 µg/mL (≈ 62.3 µM).
